{"source": "patent US20260325538A1", "about": "“THERAPY” (priority 2023, published 2026)", "key": {"[1]": {"system": "Klebsiella pneumoniae K66-45 (NDM-1)", "experiment": "Checkerboard MIC, fixed ratio of sBLI to antibiotic (Examples 3-6)", "type": "cell-based", "settings": "caMHB 29.4 μM Zn2+", "excerpt": "(§1) The antibiotics and serine β-lactamase-inhibitors (sBLIs) were purchased from the following suppliers: Ceftazidime (CAZ): Sigma-Aldrich; Cefepime (FEP): Sigma-Aldrich; Cefpodoxime (CEFP): MedChemExpress; Sulbactam (SUL): Sigma-Aldrich Avibactam (AVI): Biosynth; Vaborbactam (VAB): ABCR; Tazobactam (TAZ): Sigma-Aldrich; Taniborbactam (TAN): Sigma-Aldrich.\n(§2) In each of Examples 3-23, the compound of Example 26 of WO 2018/033719 was employed as the zinc chelator. The following abbreviations are used in these examples: sBLI means serine-β-lactamase inhibitor; CFU means colony-forming unit, which is a group of microbes that grows from a single cell on a petri plate; DMSO means dimethyl sulfoxide; MHB means Mueller-Hinton broth; caMHB means cation-adjusted Mueller-Hinton broth; MIC means minimum inhibitory concentration—the lower the MIC, the more efficient the combination against the respective bacterial strain.\n(§3) General Protocol Used in Examples 3-10 Employing a Fixed Ratio of sBLI to Antibiotic within Each Experiment:\n(§4) Antimicrobial susceptibility testing (AST) by broth microdilution (MIC determination) was performed according to The European Committee on Antimicrobial Susceptibility Testing (EUCAST) guidelines (see Reading guide for broth microdilution Version 5.0, 2024: https://www.eucast.org).\n(§5) Sterile clear round bottom polystyrene (non-treated) 96-well microplates (Corning 3788) were used for making serial two-fold dilutions of the antibiotic and the serine sBLI in cation-adjusted Mueller Hinton II broth (caMHB; Thermo Scientific, T3462, containing 29.4 μM Zn^2+), across the columns of the microtiter plate ([…]; columns 1-12). The checkerboard plates were all made by keeping the sBLI at a fixed ratio relative to antibiotic (absolute concentrations of each, in μg/mL) to all wells containing sample in each plate. Additionally, a set of samples were included in each test plate, where the zinc chelator was added, at various fixed concentrations, of 16 μg/mL, 8 μg/mL and/or 4 μg/mL (as specified in each Example). All sample wells contained growth medium (caMHB), and inoculated bacteria at a final inoculum between 3-7×10^5 CFU/mL. […] Synergy for the triple combination (antibiotic, sBLI, and zinc chelator) was defined as when the MIC in rows containing the zinc chelator in combination with antibiotic and sBLI (triple combination), was lower than for rows containing antibiotic and sBLI (double combination; no zinc chelator).\n(§6) Two technical replicates were performed for each sample. An X in rows 1-8 in the table indicates bacterial growth, while a blank cell indicates no growth. Concentrations (μg/mL) of CAZ are given in row 0a. Concentrations (μg/mL) of AVI are given in row 0b. The zinc chelator was added in fixed concentrations, at 16 μg/mL in rows 3 and 4, at 8 μg/mL in rows 5 and 6, and 4 μg/mL in rows 7 and 8. As a control, the effect of CAZ and AVI (no zinc chelator) was tested (rows 1 and 2). All wells contained bacterial growth medium (caMHB, 29.4 μM Zn^2+) and were inoculated with the test bacterium. The grey cells indicate the CAZ MIC.\nas §6, with “FEP” for “CAZ”\n(§7) Two technical replicates were performed for each sample. An X in rows 1-8 in the table indicates bacterial growth, while a blank cell indicates no growth. Concentrations (μg/mL) of FEP are given in row 0a. Concentrations (μg/mL) of SUL are given in row 0b. […]"}, "[2]": {"system": "Klebsiella pneumoniae ST147 (NDM-1 and KPC-2)", "experiment": "Checkerboard MIC, fixed ratio of sBLI to antibiotic (Examples 7-10)", "type": "cell-based", "settings": "caMHB 29.4 μM Zn2+", "excerpt": "as §1, §2, §3, §4, §5\nas §6, with “0a).” for “0a.”\nas §6, with “FEP” for “CAZ”\nas §7"}, "[3]": {"settings": "zinc chelator 8 μg/mL, with CAZ and AVI (fixed ratio)"}, "[4]": {"settings": "zinc chelator 8 μg/mL, with FEP and AVI (fixed ratio)"}, "[5]": {"settings": "zinc chelator 8 μg/mL, with FEP and SUL (fixed ratio)"}, "[6]": {"settings": "zinc chelator 8 μg/mL, with FEP and TAZ (fixed ratio)"}, "[7]": {"settings": "zinc chelator 16 μg/mL, with CAZ and AVI (fixed ratio)"}, "[8]": {"settings": "zinc chelator 16 μg/mL, with FEP and AVI (fixed ratio)"}, "[9]": {"settings": "zinc chelator 16 μg/mL, with FEP and SUL (fixed ratio)"}, "[10]": {"settings": "zinc chelator 16 μg/mL, with FEP and TAZ (fixed ratio)"}}, "data": [{"compound": "CN(C[C@H](O)[C@@H](O)[C@H](O)[C@H](O)CO)C(=O)c1ccc(CN(Cc2ccccn2)Cc2ccccn2)nc1", "note": "[zinc chelator]", "values": [{"measurement": "synergy with the zinc chelator", "setting": "[1]; zinc chelator 4 μg/mL, with CAZ and AVI (fixed ratio)", "result": "variable synergy"}, {"measurement": "synergy with the zinc chelator", "setting": "[1]; zinc chelator 4 μg/mL, with FEP and AVI (fixed ratio)", "result": "variable synergy"}, {"measurement": "synergy with the zinc chelator", "setting": "[1]; [3]", "result": "Synergy"}, {"measurement": "synergy with the zinc chelator", "setting": "[1]; [4]", "result": "Synergy"}, {"measurement": "synergy with the zinc chelator", "setting": "[1]; [5]", "result": "Synergy"}, {"measurement": "synergy with the zinc chelator", "setting": "[1]; [6]", "result": "Synergy"}, {"measurement": "synergy with the zinc chelator", "setting": "[1]; [7]", "result": "Synergy"}, {"measurement": "synergy with the zinc chelator", "setting": "[1]; [8]", "result": "Synergy"}, {"measurement": "synergy with the zinc chelator", "setting": "[1]; [9]", "result": "Synergy"}, {"measurement": "synergy with the zinc chelator", "setting": "[1]; [10]", "result": "Synergy"}, {"measurement": "synergy with the zinc chelator", "setting": "[2]; zinc chelator 4 μg/mL, with FEP and TAZ (fixed ratio)", "result": "Synergy"}, {"measurement": "synergy with the zinc chelator", "setting": "[2]; [3]", "result": "Synergy"}, {"measurement": "synergy with the zinc chelator", "setting": "[2]; [4]", "result": "Synergy"}, {"measurement": "synergy with the zinc chelator", "setting": "[2]; [5]", "result": "Synergy"}, {"measurement": "synergy with the zinc chelator", "setting": "[2]; [6]", "result": "Synergy"}, {"measurement": "synergy with the zinc chelator", "setting": "[2]; [7]", "result": "Synergy"}, {"measurement": "synergy with the zinc chelator", "setting": "[2]; [8]", "result": "Synergy"}, {"measurement": "synergy with the zinc chelator", "setting": "[2]; [9]", "result": "Synergy"}, {"measurement": "synergy with the zinc chelator", "setting": "[2]; [10]", "result": "Synergy"}]}]}
